Results on eleven compounds are retold here after ChEMBL document CHEMBL1201862, “PubChem BioAssay data set” (2004).

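Assay format: 96-well plates, 48-hour exposure. The concentration for 50% growth inhibition is given as GI50.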 Active and inactive are the calls of the source. Cut-off read from the data, not from the text of the source: active = GI50 up to about 1.1 µM and inactive = higher.

Some test systems named below: SK-OV-3; SF-268; OVCAR-4; DU-145; Malme-3M; CCRF-CEM; A498; UO-31; HT-29; U-251; KM12; NCI-H226; SW-620; BT-549; SNB-19; SF-295; T47D; SN12C; IGROV-1; M14.
What all share (assay): NCI tumour cell line growth inhibition, 48 h

In the case of `CC1CC[C@@H](C(C)C)[C@H](Oc2nnc(C3OC(CO)C(O)C3O)o2)C1` (stereo partly specified), the GI50 in the experiment with SK-OV-3, in the experiment on SF-268, in the experiment with OVCAR-4, in the experiment with DU-145, with Malme-3M and in the experiment with CCRF-CEM was > 100 µM (inactive) in each case. The GI50 in the experiment with A498, in the experiment on UO-31, in the experiment on HT-29, with U-251, in the experiment with KM12 and in the experiment with NCI-H226 was > 100 µM (inactive) each time. Also, the GI50 in the experiment with SW-620, in the experiment with BT-549, with SNB-19, in the experiment with SF-295, in the experiment on T47D and with SN12C was > 100 µM (inactive) throughout.
Turning to `Oc1c2cccc1Cc1cccc3c1OCCOCCOCCOCCOc1c(cccc1Cc1cccc(c1O)C3)C2`, the GI50 in the experiment on SK-OV-3, in the experiment with IGROV-1, with SF-268, in the experiment on OVCAR-4, with DU-145 and in the experiment on CCRF-CEM was > 100 µM (inactive) in each case. Besides, the GI50 in the experiment on A498 was > 100 µM (inactive); with UO-31, > 100 µM (inactive); in the experiment with HT-29, 54.3 µM (inactive); in the experiment on M14, > 100 µM (inactive); with U-251, > 100 µM (inactive); with KM12 it was > 100 µM (inactive). In addition, the GI50 was 22.5 µM (inactive) in the experiment with NCI-H226; > 100 µM (inactive) with SW-620; > 100 µM (inactive) in the experiment on BT-549; > 100 µM (inactive) in the experiment on SNB-19; 9.29 µM (inactive) with SF-295; > 100 µM (inactive) in the experiment with T47D. Besides, the GI50 with SN12C was > 100 µM (inactive).
In the case of `C=C(CCC(C(=O)O)C1CCC2(C)C3=C(CCC12C)C1(C)CCC(O)C(C)(C)C1CC3)C(C)C` (stereo unspecified), the GI50 in the experiment with SK-OV-3 was > 100 µM (inactive); in the experiment with IGROV-1, 22.3 µM (inactive); with SF-268, 34.4 µM (inactive); in the experiment on OVCAR-4, 43.1 µM (inactive); in the experiment with DU-145 it was > 100 µM (inactive); in the experiment with CCRF-CEM, > 10 µM (inactive). Also, the GI50 in the experiment on A498 is 29.9 µM (inactive); in the experiment with UO-31, > 100 µM (inactive); with HT-29, 32.7 µM (inactive); in the experiment with M14, 40.8 µM (inactive); in the experiment with U-251, 22 µM (inactive); with KM12, 6.38 µM (inactive). The GI50 with NCI-H226 was 30.2 µM (inactive); in the experiment with SW-620, 50.9 µM (inactive); in the experiment with BT-549, 83.6 µM (inactive); in the experiment with SNB-19, > 100 µM (inactive); with SF-295, 38.5 µM (inactive); in the experiment with T47D, 58.1 µM (inactive). In the experiment on SN12C, the GI50 was 44.6 µM (inactive).
With `CCOC(=O)CCc1c(C)nc2c(C)c3c([nH]c4ccc(Cl)cc43)c(C)c2c1O`, the GI50 in the experiment with IGROV-1 was 10.2 µM (inactive); in the experiment with SF-268 it was 14.3 µM (inactive); in the experiment on OVCAR-4 it was 6.89 µM (inactive); in the experiment with DU-145, 25.5 µM (inactive); with Malme-3M, 11.3 µM (inactive); in the experiment on CCRF-CEM it was 7.91 µM (inactive). Besides, the GI50 in the experiment on A498 is 1.8 µM (inactive); in the experiment on UO-31 it was 16.1 µM (inactive); in the experiment with HT-29 it was 4.75 µM (inactive); with M14, 4.94 µM (inactive); with U-251, 11 µM (inactive); with KM12, 11.7 µM (inactive). For the same compound, the GI50 was 17.1 µM (inactive) with NCI-H226; 22.4 µM (inactive) with SW-620; 10.1 µM (inactive) in the experiment with BT-549; 9.59 µM (inactive) with SNB-19; 5.55 µM (inactive) in the experiment on SF-295; 14.8 µM (inactive) in the experiment on T47D.
In the case of `CSC(SC)=C(C#N)C(=O)Nc1ccc(Cl)cc1`, the GI50 is > 100 µM (inactive) with SK-OV-3; 61.7 µM (inactive) in the experiment on SF-268; 29.9 µM (inactive) in the experiment with OVCAR-4; 74.6 µM (inactive) with DU-145; 27.1 µM (inactive) with Malme-3M; 20.6 µM (inactive) with CCRF-CEM. The GI50 in the experiment on A498 was 10.6 µM (inactive); in the experiment with UO-31, 22 µM (inactive); with HT-29, 35.6 µM (inactive); in the experiment on M14, 48.4 µM (inactive); with U-251, 91 µM (inactive); with KM12 it was 68.2 µM (inactive). Also, the GI50 in the experiment on NCI-H226 is 23.6 µM (inactive); in the experiment with SW-620 it was 44.1 µM (inactive); with BT-549, 46.7 µM (inactive); in the experiment on SNB-19, 68.1 µM (inactive); with T47D it was 25.4 µM (inactive); with SN12C, > 100 µM (inactive).
Turning to `N=c1c2c(=S)n(-c3ccccc3)c(=S)n(-c3ccccc3)c2nc(SCCCN2CCCCC2)n1-c1ccccc1`, the GI50 in the experiment with SK-OV-3 was 2.26 µM (inactive); in the experiment on IGROV-1 it was 1.5 µM (inactive); with SF-268, 1.99 µM (inactive); in the experiment on OVCAR-4, 1.81 µM (inactive); with DU-145, 1.66 µM (inactive); in the experiment on Malme-3M it was 1.73 µM (inactive). Besides, the GI50 is 0.413 µM (active) in the experiment with CCRF-CEM; 2.52 µM (inactive) in the experiment with A498; 2.09 µM (inactive) with HT-29; 1.69 µM (inactive) in the experiment with M14; 1.74 µM (inactive) with U-251; 1.82 µM (inactive) in the experiment on KM12. Besides, the GI50 in the experiment on NCI-H226 is 2.35 µM (inactive); in the experiment with SW-620 it was 2.11 µM (inactive); with BT-549, 1.75 µM (inactive); in the experiment with SNB-19, 2.91 µM (inactive); with SF-295, 4.91 µM (inactive); in the experiment with T47D it was 2.14 µM (inactive). Moreover, the GI50 in the experiment with SN12C was 1.78 µM (inactive).
On to `O=C1OC2C=CCC1C2` (stereo unspecified), for which the GI50 in the experiment on SK-OV-3, in the experiment with IGROV-1, in the experiment on SF-268, in the experiment with DU-145, in the experiment on Malme-3M and in the experiment with CCRF-CEM was > 100 µM (inactive) throughout. Also, the GI50 with A498, in the experiment on UO-31, with HT-29, in the experiment with M14, with U-251 and with KM12 was > 100 µM (inactive) each time. The GI50 with NCI-H226, in the experiment on SW-620, in the experiment with BT-549, in the experiment with SNB-19, with SF-295 and in the experiment on T47D was > 100 µM (inactive) throughout. Also, the GI50 in the experiment with SN12C is > 100 µM (inactive).
With `C#CC(C)(C)OC(=O)C(=[N+]=[N-])C(C)=O`, the GI50 with SK-OV-3, with IGROV-1, with SF-268, in the experiment with DU-145, with Malme-3M and with CCRF-CEM was > 10 µM (inactive) throughout. Further, the GI50 with A498, with UO-31, with HT-29, in the experiment on M14, in the experiment with U-251 and in the experiment on KM12 was > 10 µM (inactive) each time. Moreover, the GI50 in the experiment with NCI-H226, in the experiment on SW-620, with BT-549, in the experiment on SNB-19, in the experiment with SF-295 and with T47D was > 10 µM (inactive) throughout. The GI50 with SN12C is > 10 µM (inactive).
Regarding `O=C1CSC(c2cccc(Oc3ccccc3)c2)N1c1cc(Cl)ccc1Cl` (stereo unspecified), the GI50 with SK-OV-3 was 39.8 µM (inactive); with SF-268, 19.7 µM (inactive); with OVCAR-4, 17.2 µM (inactive); with DU-145 it was 35.2 µM (inactive); in the experiment on Malme-3M it was 27.5 µM (inactive); in the experiment with CCRF-CEM, 17.2 µM (inactive). In addition, the GI50 in the experiment with A498 was 32.6 µM (inactive); with UO-31 it was 23.3 µM (inactive); with HT-29 it was 22.4 µM (inactive); in the experiment with M14, 22.2 µM (inactive); with U-251, 18.4 µM (inactive); in the experiment on KM12 it was 26.4 µM (inactive). For the same compound, the GI50 is 23.4 µM (inactive) in the experiment with NCI-H226; 22.3 µM (inactive) in the experiment on SW-620; 19.1 µM (inactive) with BT-549; 22.8 µM (inactive) with SNB-19; 23 µM (inactive) in the experiment with SF-295; 21.7 µM (inactive) in the experiment with T47D. In addition, the GI50 in the experiment on SN12C is 19.5 µM (inactive).
Regarding `O=C(O)CCC(O)=C1S(=O)(=O)OCCOS1(=O)=O`, the GI50 in the experiment with SK-OV-3, in the experiment with IGROV-1, in the experiment with SF-268, with OVCAR-4, with DU-145 and in the experiment on Malme-3M was > 100 µM (inactive) each time. For the same compound, the GI50 with A498, in the experiment with UO-31, with HT-29, in the experiment on M14, in the experiment with U-251 and in the experiment with KM12 was > 100 µM (inactive) throughout. In addition, the GI50 in the experiment with NCI-H226, in the experiment with SW-620, in the experiment with BT-549, in the experiment on SNB-19, in the experiment on SF-295 and in the experiment on T47D was > 100 µM (inactive) in each case. Moreover, the GI50 in the experiment with SN12C is > 100 µM (inactive).
In the case of `CC(C)(C)c1ccc(OC(=O)Nc2ccc(O)c(C(=O)O)c2)cc1`, the GI50 in the experiment on SK-OV-3, in the experiment on IGROV-1, in the experiment with SF-268, with OVCAR-4, in the experiment with DU-145 and in the experiment with Malme-3M was > 100 µM (inactive) throughout. In addition, the GI50 in the experiment with CCRF-CEM, in the experiment with A498, with HT-29, in the experiment on M14, in the experiment with U-251 and in the experiment on KM12 was > 100 µM (inactive) throughout. For the same compound, the GI50 in the experiment on NCI-H226, in the experiment on SW-620, in the experiment with BT-549, in the experiment with SNB-19, in the experiment on SF-295 and in the experiment with T47D was > 100 µM (inactive) each time. In the experiment with SN12C, the GI50 was > 100 µM (inactive).
